Measurements published in US5434295A (priority 1994, dated 1995).
“Also recorded” adds a separate entry of the source.

Legend:
[1] = test system: intraocular pressure (IOP); experiment: Ocular hypotensive activity (intraocular pressure) in albino rabbits; assay type: in vivo, albino rabbit; conditions: for Max ΔIOP: ** drug vs. vehicle P < 0.01
Protocol: Bicyclic compounds of the present invention were also tested for IOP lowering effects.
(§1) Sci., 82, 1069-1079 (1993).
The phospholipids and HU-259 were dissolved in the stabilized oily phase. The other excipients were dissolved in the aqueous phase. Both phases were heated separately to 70° C. and dispersed by a magnetic stirrer. Emulsification was completed using a "high speed mixer" for 5 min at 85° C. The resulting emulsion was cooled rapidly below 20° C. and homogenized using a two-stage homogenizing valve assembly (Gaulin Homogenizer, APV Gaulin, Hilversum, The Netherlands) for 5 min. All the manufacturing procedures were carried out under aseptic conditions and a nitrogen atmosphere. The pH was adjusted to 7.4 using a sodium hydroxide solution (10%). The final fine emulsion was filtered to achieve sterility and stored in ampoules. A typical formulation (%, w/w) consisted of the following: HU-259, 0.2%; oily phase, 20.0%; purified fractionated egg phospholipids, 1.2%; nonionic emulsifier, 2%; glycerin, 2.25%; α-tocopherol, 0.02%; methyl and butyl p-hydroxy- benzoic ester, 0.3 and 0.075%, respectively; and water for injection, to 100.0 g. The control emulsion vehicle was prepared using identical experimental conditions but without drug.
IOP was measured by using a pneumatonometer (Digilab T30). Pressure readings were calibrated for verification every 6 h. One drop (50 μl) of local anesthetic (Benoxinate HCl, 0.4% Fischer [Isr] diluted 1:3 with sterile saline) was instilled into each eye prior to IOP measurements.

[2] = test system: cerebral ischemia in gerbils; experiment: Neurobehavioral scores in gerbils after bilateral common carotid artery occlusion; assay type: in vivo, Mongolian gerbils
Excerpt: Inhibition of ischemic neuronal damage in gerbils: Temporary blockage of the blood supply to the gerbil brain by surgical ligation of the two major arteries (common carotids) results in transient global forebrain ischemia. Temporary global ischemia produces a delayed, selective degeneration of neurons in the hippocampus, a brain structure essential for memory formation. The ability of various compounds to prevent hippocampal cell loss and the attendant memory deficits is considered a measure of their potency as neuroprotectants in ischemic conditions.
The data are presented as average differential scores between the initial score obtained 5 hrs post-ischemia and that obtained on each successive day. The drug was administered intravenously 30 min post-ischemia.
Mongolian gerbils (male), 65-70 gr (Tumblebrook Farm) underwent the ischemic procedure while anaesthetised with equithisine.
Common carotid arteries (CCA) were isolated and 3-0 silk suture material was positioned loosely round them. The tips of each loop were tied together, and the suture material was buried beside the trachea. The ventral neck incision was then sutured. In the following day, they were lightly anaesthetised with ether, the neck skin wounds were opened and both CCA were occluded for 10 minutes using small artery clips. During the ischemia and until the animals recovered (regaining righting reflexes), they were maintained in a warm state (36.5°-37.5° C. rectal temperature). Thirty minutes following onset of ischemia, animals were reanaesthetised (ether) and the appropriate drug was administered I.V. via the femoral vein.
Clinical evaluation. […] This was done every 24 hours, for the entire 96-hour period. […]
Statistics. Neuroclinical appearance was analyzed using Wilcoxon Rank Sum Test. The histopathological evaluation was analyzed using One-Way ANOVA followed by Duncan's Test.
Gerbils were scored for their clinical symptoms following the ischemic insult according to the system described by Rudolphi et al. (Table 4). Each animal was evaluated daily over 4 consecutive days (Day 1 being the day of CCA occlusion). […]

GABA receptors = experiment: Effect on GABA responses in oocytes; assay type: biochemical, rat
AMPA/kainate receptors = experiment: Effect on kainate responses in oocytes; assay type: biochemical, rat
[3] = test system: voltage-dependent P-type calcium channels; experiment: Inhibition of voltage-dependent P-type calcium channels expressed in oocytes; assay type: biochemical, rat
[4] = Lipophilicity / solubility (statement); assay type: physicochemical
Protocol: as §1
Several NMDA receptor blockers were tested. These compounds have […] and have to be dissolved in 100% dimethyl sulfoxide (DMSO) and diluted for use in ND-96 that contained 1% DMSO. Therefore, the effect of 1% DMSO on the response to 10^-4 M NMDA and 5×10^-6 M glycine was examined. DMSO had no effect on NMDA response in three different cells.

[5] = test system: quisqualate-induced toxicity in primary cerebral cortical cell cultures; experiment: Protection of cortical neurons in culture from quisqualate-induced toxicity; assay type: cell-based; conditions: Rattus norvegicus, Cortical neurone; 10 μM compound; quisqualate 500 μM; read-out: % of cells rescued from quisqualate-induced toxicity
Protocol: The neuroprotective effects of the compounds of the invention were tested on neurons exposed to various excitotoxins in culture. The compounds tested included HU-259, HU-260, HU-270 and HU-271, which were all shown to have NMDA antagonist properties in mice (Example 13).
The test drugs were examined for their ability to protect neurons in culture from toxic effects of agonists of the different glutamate receptor subtypes (agonists of ionotropic and/or metabotropic glutamate receptors), e.g. NMDA, AMPA, kainate and quisqualate. The culture conditions and assay conditions were all performed as described in Eshhar et al. (NeuroReport 5, No. 3, 1993). In brief, primary cerebral cortical cell cultures were prepared from 18-20 day old rat fetuses by enzymatic dissociation. Resulting cell suspensions were plated on confluent cortical glial cell feder layer (prepared 2 weeks earlier by a similar method). […] Cell viability was determined morphologically following neuron specific enolase immunostaining of cells using the ABC biotin-avidin complex method, and determined quantitatively by measuring the extent of mitochondrial activity in living cells using the XTT-based assay. […] The density of color formation (O.D.), which is proportional to mitochondrial activity, was measured by a plate ELISA reader. The extent of neuroprotectant activity is expressed as % of cells rescued by the drugs tested.

SMILES	AUC (from instillation of treatment until return to baseline IOP) ([1]; contralateral eye)	contralateral eye pressure lowered by ([1]; contralateral eye, single dose application)	Max ΔIOP ([1]; contralateral eye)	time of maximal ocular hypotensive effect ([1]; post-application)	time at which pressure returned to baseline level ([1]; post-treatment)	duration of statistically significant reduction in IOP compared to vehicle ([1]; single dose 30 microliter 0.2% emulsion)	AUC (from instillation of treatment until return to baseline IOP) ([1]; treated eye)	Max ΔIOP ([1]; treated eye, single dose 0.2% emulsion)	Pressure dropped by (maximal ocular hypotensive effect) ([1]; treated right eye, 3 h post-application, P<0.01)	neurobehavioral scores / clinical symptoms ([2]; 8 mg/kg i.v. 30 min post-ischemia)	animals showing no signs ([2]; three days post-ischemia)	animals showing only mild signs ([2]; three days post-ischemia)	effect on GABA responses (GABA receptors)	effect on kainate responses (AMPA/kainate receptors)	inhibition of activity of voltage-dependent P-type calcium channels [3]	lipophilicity [4]	inhibition at 10 µM [5]
CCCCCCC(C)(C)c1cc(OC(C)=O)c([C@H]2C=C(C(=O)O)[C@H]3C[C@@H]2C3(C)C)c(OC(C)=O)c1 [(+)-4-[4-DMH-2,6 diacetoxyphenyl]-2-carboxy-6,6-dimethylbicyclo[3.1.1]hept-2-en]	-7.8 ± 8.1 mmHg × hrs	2.5±0.9 mmHg	-2.5 ± 0.9 mmHg	3 h	7 h	over five hours	-10.9 ± 10.9 mmHg × hrs	-3.2 ± 0.7 mmHg	3.2±0.7 mmHg	improvement in neurobehavioral scores; also recorded: statistically significant improvement compared to controls	90%	10%	no effect	no effect	did not inhibit	very lipophilic	
CCCCCCC(C)(C)c1cc(OC(C)=O)c([C@H]2C=C(C(=O)NCCO)[C@H]3C[C@@H]2C3(C)C)c(OC(C)=O)c1 [HU-271]																	37%
